Literature values as cited in publication PMC6311893, “Computational prediction of plasma protein binding of cyclic peptides from small molecule experimental data using sparse modeling techniques” (BMC Bioinformatics, 2018).

system: plasma protein; conditions: fraction bound to plasma protein; small molecule dataset, sheet 1-SM (Set Dte = test, Dtr = training); ref Ingle et al.; cited from earlier work

Point of comparison: `CNCCc1ccccn1` [betahistine], “PPB (fb)” value 0.03. Against it:
- CC(C)(C)N1CCC(c2ccccc2)(c2ccccc2)CC1 [budipine] — higher, 0.96
- O=C(O)c1cn(-c2cccc(C(F)(F)F)c2)c2cc(N3CCNCC3)c(F)cc2c1=O [3b(m-CF3)] — higher, 0.62

same assay, conditions: fraction bound to plasma protein; small molecule dataset, sheet 1-SM, Set Dtr; ref Ingle et al.; cited from earlier work

Point of comparison: `O=C(N[C@H](CO)[C@H](O)c1ccc([N+](=O)[O-])cc1)C(Cl)Cl` [Chloramphenicol], “PPB (fb)” value 0.61. Against it:
- O=C1c2cccc3c2[C@H](CCC3)CN1[C@@H]1CN2CCC1CC2 [Palonosetron] — higher, 0.62
- CC(C)[C@H](N)C(=O)OCCOCn1cnc2c(=O)[nH]c(N)nc21 [valacyclovir] — lower, 0.18
- Cc1cccc(C)c1NC(=O)c1cc(S(N)(=O)=O)c(Cl)cc1O [xipamide] — higher, 0.99
- Nc1nc(F)nc2c1ncn2[C@@H]1O[C@H](CO)[C@@H](O)[C@@H]1O [Fludarabine] — lower, 0.12
- C[C@H]1C[C@H]2[C@@H]3CCC4=CC(=O)C=C[C@]4(C)[C@@]3(F)[C@@H](O)C[C@]2(C)[C@@]1(O)C(=O)CO [Betamethasone] — higher, 0.66
- CNCCC=C1c2ccccc2CCc2ccccc21 [Nortriptyline] — higher, 0.91
- N[C@@H](C(=O)N[C@@H]1C(=O)N2C(C(=O)O)=C(CSc3c[nH]nn3)CS[C@H]12)c1ccc(O)cc1 [Cefatrizine] — lower, 0.59

same assay, conditions: fraction bound to plasma protein; small molecule dataset, sheet 1-SM; ref Ingle et al.; cited from earlier work

Point of comparison: `O=C(O)c1ccc(O)cc1` [p-hydroxybenzoic acid], “PPB (fb)” value 0.35. Against it:
- CCCCN1C[C@H](O)[C@@H](O)[C@H](O)[C@H]1CO [Miglustat] — lower, 0.01
- CCOC(=O)[C@H](CCc1ccccc1)N[C@@H](C)C(=O)N1Cc2ccccc2C[C@H]1C(=O)O [quinapril] — higher, 0.97
- [H]/N=C(/N)NS(=O)(=O)c1ccc(N)cc1 [sulfaguanidine] — lower, 0.08
- CC12CC3CC(C)(C1)CC(N)(C3)C2 [Memantine] — higher, 0.45
- CC1(C)SC2C(NC(=O)C(Cl)c3ccccc3)C(=O)N2C1C(=O)O (stereo not drawn) [penicillin22] — higher, 0.78

same assay, conditions: plasma; cited from earlier work

Point of comparison: `O=C1CN=C(c2ccccc2Cl)c2cc(Cl)ccc2N1` [Delorazepam (Chlordesmethyldiazepam)], “PPB (fb)” value 0.95. Against it:
- Micafungin [reference compound] — higher, 1
- Eptifibatide [reference compound] — lower, 0.25
- Anidulafungin [reference compound] — lower, 0.84
- Vancomycin [reference compound] — lower, 0.37
- Quinupristin [reference compound] — lower, 0.66
- Oxytocin [reference compound] — lower, 0
- COC(=O)[C@H]1[C@@H](OC(=O)c2ccccc2)C[C@@H]2CC[C@H]1N2C [Cocaine] — lower, 0.89
- OC(O)C(Cl)(Cl)Cl [chloral-hydrate] — lower, 0.35

system: plasma protein; conditions: cited from earlier work

Point of comparison: Terlipressin, “PPB (fb)” value 0.3. Against it:
- Eptifibatide [reference compound] — lower, 0.25
- Dalbavancin — higher, 0.93
- Teixobactin — higher, 0.84
- Oxytocin [reference compound] — the same, 0.3

For Quinupristin [reference compound], the “PPB (fb)” value is listed as 0.55-0.78.

same assay, conditions: fraction bound (0-1); public cyclic peptide drug dataset; ref DrugBank [39]; cited from earlier work

Point of comparison: Daptomycin, “PPB (fb)” value 0.85. Against it:
- Micafungin [reference compound] — higher, 0.99
- Acetyl-Daptomycin — lower, 0.12
- Caspofungin — higher, 0.97
- Anidulafungin [reference compound] — higher, 0.99
- Pasireotide — higher, 0.88
- Vancomycin [reference compound] — lower, 0.55
- Desmopressin — lower, 0.5
- Dactinomycin — lower, 0.05
- Polymyxin?B — lower, 0.559
- Telavancin — higher, 0.897
- Vasopressin — lower, 0.01
- Oritavancin — the same, 0.85

For Colistin, the “PPB (fb)” value is given as 0.904-0.929.
In the case of Lanreotide, the “PPB (fb)” value is given as 0.79-0.83.
For Romidepsin, the “PPB (fb)” value is listed as 0.92-0.94.
